The OligoGym collection
HELM strings list units from the 5' end as sugar, base in round brackets, then linkage (d deoxyribose, r ribose, m 2'-O-methyl, p phosphodiester). Strings are as the collection lists them; they lack the last nucleoside at the 3' end of the tested compound. [moe] = 2'-O-(2-methoxyethyl) (MOE); [sp] = phosphorothioate linkage; [m5C] = 5-methylcytosine

Target: UBE3A-ATS
Assay: mouse, dose not given
Conditions: ASO

Row | Substance | 3 h FOB score [score 0-7]
1 | RNA1{[moe](A)[sp].[moe](G)p.[moe]([m5C])p.[moe](T)p.[moe](A)p.d(T)[sp].d([m5C])[sp].d(T)[sp].d(G)[sp].d(T)[sp].d(A)[sp].d([m5C])[sp].d(A)[sp].d(A)[sp].d(A)[sp].[moe](A)p.[moe](T)p.[moe](G)[sp].[moe](G)}$$$$ (last 3' nucleoside missing) | 4
2 | RNA1{[moe](A)[sp].[moe](G)p.[moe]([m5C])p.[moe](T)p.[moe](T)p.d(T)[sp].d(A)[sp].d(G)[sp].d(T)[sp].d(A)[sp].d(T)[sp].d(G)[sp].d(T)[sp].d([m5C])[sp].d(G)[sp].[moe](A)p.[moe](G)p.[moe](A)[sp].[moe](A)}$$$$ (last 3' nucleoside missing) | 4.2
3 | RNA1{[moe](A)[sp].[moe](G)p.[moe]([m5C])p.[moe](T)p.[moe]([m5C])p.d(A)[sp].d([m5C])[sp].d(T)[sp].d(G)[sp].d(A)[sp].d(A)[sp].d(A)[sp].d(G)[sp].d(A)[sp].d([m5C])[sp].[moe](A)p.[moe]([m5C])p.[moe](A)[sp].[moe](A)}$$$$ (last 3' nucleoside missing) | 5
4 | RNA1{[moe](A)[sp].[moe](G)p.[moe]([m5C])p.[moe]([m5C])[sp].d(A)[sp].d(G)[sp].d(G)[sp].d(T)[sp].d(G)[sp].d(T)[sp].d([m5C])[sp].d(T)[sp].[moe](T)p.[moe](A)p.[moe](T)p.[moe](A)[sp].[moe](T)}$$$$ (last 3' nucleoside missing) | 6
5 | RNA1{[moe](A)[sp].[moe](G)p.[moe]([m5C])p.[moe]([m5C])p.[moe](A)[sp].d(G)[sp].d(G)[sp].d(T)[sp].d(G)[sp].d(T)[sp].d([m5C])[sp].d(T)[sp].d(T)[sp].[moe](A)p.[moe](T)p.[moe](A)[sp].[moe](T)}$$$$ (last 3' nucleoside missing) | 6
6 | RNA1{[moe](A)[sp].[moe](G)p.[moe]([m5C])p.[moe]([m5C])p.[moe](A)p.[moe](G)[sp].d(G)[sp].d(T)[sp].d(G)[sp].d(T)[sp].d([m5C])[sp].d(T)[sp].d(T)[sp].d(A)[sp].[moe](T)p.[moe](A)[sp].[moe](T)}$$$$ (last 3' nucleoside missing) | 0
7 | RNA1{[moe](A)[sp].[moe](G)p.[moe]([m5C])p.[moe]([m5C])p.[moe](A)p.[moe](G)p.d(G)[sp].d(T)[sp].d(G)[sp].d(T)[sp].d([m5C])[sp].d(T)[sp].d(T)[sp].d(A)[sp].d(T)[sp].d(A)[sp].[moe](T)p.[moe]([m5C])[sp].[moe](T)}$$$$ (last 3' nucleoside missing) | 0
8 | RNA1{[moe](A)[sp].[moe](G)p.[moe]([m5C])p.[moe]([m5C])p.[moe](A)p.d(G)[sp].d(G)[sp].d(T)[sp].d(G)[sp].d(T)[sp].d([m5C])[sp].d(T)[sp].d(T)[sp].d(A)[sp].d(T)[sp].[moe](A)p.[moe](T)p.[moe]([m5C])[sp].[moe](T)}$$$$ (last 3' nucleoside missing) | 2.3
9 | RNA1{[moe](A)[sp].[moe](G)p.[moe]([m5C])p.[moe]([m5C])p.d(A)[sp].d(G)[sp].d(G)[sp].d(T)[sp].d(G)[sp].d(T)[sp].d([m5C])[sp].d(T)[sp].d(T)[sp].d(A)[sp].[moe](T)p.[moe](A)p.[moe](T)p.[moe]([m5C])[sp].[moe](T)}$$$$ (last 3' nucleoside missing) | 4
10 | RNA1{[moe](A)[sp].[moe](T)[sp].[moe]([m5C])[sp].[moe](A)[sp].[moe](T)[sp].d(G)[sp].d(T)[sp].d(G)[sp].d([m5C])[sp].d(A)[sp].d(T)[sp].d(A)[sp].d([m5C])[sp].d([m5C])[sp].d([m5C])[sp].[moe](A)[sp].[moe](G)[sp].[moe](G)[sp].[moe](G)}$$$$ (last 3' nucleoside missing) | 5.2
11 | RNA1{[moe](A)[sp].[moe](T)p.[moe](A)p.[moe](G)p.[moe]([m5C])p.d([m5C])[sp].d([m5C])[sp].d(T)[sp].d(T)[sp].d(T)[sp].d([m5C])[sp].d(A)[sp].d(G)[sp].d([m5C])[sp].d(A)[sp].[moe]([m5C])p.[moe](A)p.[moe]([m5C])[sp].[moe](T)}$$$$ (last 3' nucleoside missing) | 3.5
12 | RNA1{[moe](A)[sp].[moe](T)p.[moe](G)p.[moe](A)p.[moe](T)p.d([m5C])[sp].d(A)[sp].d(T)[sp].d(A)[sp].d([m5C])[sp].d(T)[sp].d(G)[sp].d(G)[sp].d(A)[sp].d(G)[sp].[moe]([m5C])p.[moe]([m5C])p.[moe](A)[sp].[moe](G)}$$$$ (last 3' nucleoside missing) | 5.8
13 | RNA1{[moe](A)[sp].[moe](T)p.[moe](G)p.[moe](A)p.[moe]([m5C])p.d(A)[sp].d(T)[sp].d(A)[sp].d(A)[sp].d([m5C])[sp].d([m5C])[sp].d(A)[sp].d(T)[sp].d(A)[sp].d(T)[sp].[moe](A)p.[moe]([m5C])p.[moe](A)[sp].[moe](A)}$$$$ (last 3' nucleoside missing) | 0
14 | RNA1{[moe](A)[sp].[moe](T)p.[moe](G)p.[moe](G)p.[moe](G)p.d(A)[sp].d(G)[sp].d([m5C])[sp].d(T)[sp].d([m5C])[sp].d(T)[sp].d(G)[sp].d(G)[sp].d(A)[sp].d(A)[sp].[moe](A)p.[moe](A)p.[moe]([m5C])[sp].[moe](A)}$$$$ (last 3' nucleoside missing) | 4
15 | RNA1{[moe](A)[sp].[moe](T)p.[moe](G)p.[moe](T)p.[moe](A)p.d(T)[sp].d([m5C])[sp].d(A)[sp].d(G)[sp].d(G)[sp].d([m5C])[sp].d(A)[sp].d(A)[sp].d([m5C])[sp].d(A)[sp].[moe](G)p.[moe](A)p.[moe](A)[sp].[moe](T)}$$$$ (last 3' nucleoside missing) | 5
16 | RNA1{[moe](A)[sp].[moe](T)p.[moe](G)p.[moe](T)p.[moe](G)p.[moe]([m5C])p.d(A)[sp].d(T)[sp].d(A)[sp].d([m5C])[sp].d([m5C])[sp].d([m5C])[sp].d(A)[sp].d(G)[sp].d(G)[sp].d(G)[sp].[moe](T)p.[moe](A)[sp].[moe](G)}$$$$ (last 3' nucleoside missing) | 3.5
17 | RNA1{[moe](A)[sp].[moe](T)p.[moe](G)p.[moe](T)p.[moe](G)p.d(G)[sp].d(G)[sp].d([m5C])[sp].d([m5C])[sp].d(T)[sp].d([m5C])[sp].d(T)[sp].d(A)[sp].d(T)[sp].d(T)[sp].[moe](A)p.[moe](A)p.[moe](G)[sp].[moe](A)}$$$$ (last 3' nucleoside missing) | 0.7
18 | RNA1{[moe](A)[sp].[moe](T)p.[moe](G)p.[moe](T)p.[moe](G)p.d([m5C])[sp].d(A)[sp].d(T)[sp].d(A)[sp].d([m5C])[sp].d([m5C])[sp].d([m5C])[sp].d(A)[sp].d(G)[sp].d(G)[sp].[moe](G)p.[moe](T)p.[moe](A)[sp].[moe](G)}$$$$ (last 3' nucleoside missing) | 4
19 | RNA1{[moe](A)[sp].[moe](T)p.[moe](G)p.[moe](T)p.d(G)[sp].d([m5C])[sp].d(A)[sp].d(T)[sp].d(A)[sp].d([m5C])[sp].d([m5C])[sp].d([m5C])[sp].d(A)[sp].d(G)[sp].[moe](G)p.[moe](G)p.[moe](T)p.[moe](A)[sp].[moe](G)}$$$$ (last 3' nucleoside missing) | 1.8
20 | RNA1{[moe](A)[sp].[moe](T)p.[moe](T)p.[moe](G)p.[moe](A)p.d([m5C])[sp].d(A)[sp].d([m5C])[sp].d([m5C])[sp].d(T)[sp].d([m5C])[sp].d([m5C])[sp].d(A)[sp].d(A)[sp].d([m5C])[sp].[moe](T)p.[moe](G)p.[moe](T)[sp].[moe](A)}$$$$ (last 3' nucleoside missing) | 0.7
21 | RNA1{[moe](A)[sp].[moe](T)p.[moe](T)p.[moe](G)p.[moe](G)p.[moe](T)p.d([m5C])[sp].d(A)[sp].d(T)[sp].d([m5C])[sp].d(T)[sp].d([m5C])[sp].d(G)[sp].d(G)[sp].d(G)[sp].d(T)[sp].[moe](A)p.[moe](T)[sp].[moe](A)}$$$$ (last 3' nucleoside missing) | 4
22 | RNA1{[moe](A)[sp].[moe](T)p.[moe](T)p.[moe](G)p.[moe](G)p.d(T)[sp].d([m5C])[sp].d(A)[sp].d(T)[sp].d([m5C])[sp].d(T)[sp].d([m5C])[sp].d(G)[sp].d(G)[sp].d(G)[sp].[moe](T)p.[moe](A)p.[moe](T)[sp].[moe](A)}$$$$ (last 3' nucleoside missing) | 2.8
23 | RNA1{[moe](A)[sp].[moe](T)p.[moe](T)p.[moe](G)p.[moe](T)p.d([m5C])[sp].d([m5C])[sp].d(T)[sp].d([m5C])[sp].d([m5C])[sp].d(T)[sp].d(G)[sp].d(G)[sp].d(T)[sp].d(A)[sp].[moe](A)p.[moe]([m5C])p.[moe]([m5C])[sp].[moe](A)}$$$$ (last 3' nucleoside missing) | 1.2
24 | RNA1{[moe](A)[sp].[moe](T)p.[moe](T)p.[moe](G)p.d(G)[sp].d(T)[sp].d([m5C])[sp].d(A)[sp].d(T)[sp].d([m5C])[sp].d(T)[sp].d([m5C])[sp].d(G)[sp].d(G)[sp].[moe](G)p.[moe](T)p.[moe](A)p.[moe](T)[sp].[moe](A)}$$$$ (last 3' nucleoside missing) | 4
25 | RNA1{[moe](A)[sp].[moe](T)p.[moe](T)p.[moe]([m5C])p.[moe](A)p.d(G)[sp].d(A)[sp].d(T)[sp].d(A)[sp].d([m5C])[sp].d(T)[sp].d(A)[sp].d(G)[sp].d(T)[sp].d(T)[sp].[moe](T)p.[moe](A)p.[moe]([m5C])[sp].[moe]([m5C])}$$$$ (last 3' nucleoside missing) | 2.8
26 | RNA1{[moe](A)[sp].[moe](T)p.[moe](T)p.[moe]([m5C])p.[moe](A)p.d(G)[sp].d([m5C])[sp].d(A)[sp].d([m5C])[sp].d(T)[sp].d(T)[sp].d(A)[sp].d(G)[sp].d(G)[sp].d(T)[sp].[moe](A)p.[moe](G)p.[moe](T)[sp].[moe](T)}$$$$ (last 3' nucleoside missing) | 3.3
